Calls of active or inactive are those of the source.
Assays:
P388 = assay: cells; type: functional; conditions: Mus musculus
SN12K1 = assay: cells; type: functional; conditions: Homo sapiens
P388/ADR = assay: cells; type: functional; conditions: Mus musculus
[1] = biological target: Voltage-gated inwardly rectifying potassium channel KCNH2 (Homo sapiens, UniProt Q12809); conditions: Potency;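 also: confirmatory quantitative high-throughput screen measuring inhibition of hERG channel activity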
[2] = Luminescence Cell-Based Dose Retest to Confirm Inhibitors of Cancer Stem Cells. [Related pubchem assays (depositor defined):AID2717, AID2721]; type: functional; conditions: Homo sapiens
[3] = control 3'UTR Renilla luciferase suppression, dose response, counter-screen for Shn3 inhibitor project, cell-based, Clone20-Shn3RL, cherry-picked (AID 624133); type: functional
[4] = biological target: Heat shock protein HSP 90-alpha (Homo sapiens, UniProt P07900); type: functional, organism-based
[5] = Shn3 3'UTR reporter inhibitors, dose response, cell-based, Clone20 osteoblasts, firefly luciferase, cherry-picked (AID 624132); type: functional;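 also: firefly luciferase luminescence from reporter carrying the Shn3 3'UTR in osteoblasts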
[6] = HepG2 cell cytotoxicity, dose response, cytotoxicity control for Shn3 inhibitor project, CellTiter-Glo, cherry-picked (AID 624134); type: functional, cell-based
HEK293 = assay: inhibitors of LMP1-driven NF-kB reporter, dose response, cell-based, HEK293, luciferase, cherry-pick (AID 588343); type: functional; conditions: Homo sapiens
[7] = inhibitors of intracellular T. cruzi replication, confirmation, NIH3T3 host cells, beta-gal luminescence (AID 2044); type: functional, cell-based;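 also: intracellular parasites grown in NIH/3T3 mouse fibroblasts as host cells; luminescent beta-galactosidase reporter signal from transgenic T. cruzi replicating inside host cells; inhibitors lower the luminescence signal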
[8] = cytotoxicity toward NIH3T3 fibroblasts, dose response, counter-screen, cell-based, ATP luminescence, mouse fibroblasts (AID 2010); type: functional;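 also: cells exposed to compound for about 90 hours before reading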
Cytochrome P450 3A4 = Cytochrome P450 3A4 (Homo sapiens, UniProt P08684);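 also: CYP3A4 tested as one member of a cytochrome P450 panel screen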
Sequence of Cytochrome P450 3A4 (P08684 whole entry): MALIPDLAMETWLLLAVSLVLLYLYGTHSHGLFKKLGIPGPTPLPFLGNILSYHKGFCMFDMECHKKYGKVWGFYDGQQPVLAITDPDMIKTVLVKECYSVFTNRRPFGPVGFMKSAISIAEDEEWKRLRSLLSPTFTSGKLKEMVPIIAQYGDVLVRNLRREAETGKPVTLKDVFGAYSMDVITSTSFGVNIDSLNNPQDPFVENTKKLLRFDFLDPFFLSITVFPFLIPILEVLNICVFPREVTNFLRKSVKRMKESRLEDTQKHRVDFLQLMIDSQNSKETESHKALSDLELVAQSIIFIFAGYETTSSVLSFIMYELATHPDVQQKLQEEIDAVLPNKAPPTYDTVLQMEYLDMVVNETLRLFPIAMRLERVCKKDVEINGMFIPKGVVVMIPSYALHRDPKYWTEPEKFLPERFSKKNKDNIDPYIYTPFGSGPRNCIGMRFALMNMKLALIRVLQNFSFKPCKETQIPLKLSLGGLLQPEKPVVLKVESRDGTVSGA

Vero = Vero cell cytotoxicity, cytotoxicity control for flavivirus capping enzyme inhibitors (AID 588742); type: functional; conditions: Chlorocebus sabaeus
Cytochrome P450 2D6 = Cytochrome P450 2D6 (Homo sapiens, UniProt P10635);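 also: CYP2D6 member of a cytochrome P450 panel assay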
Sequence of Cytochrome P450 2D6 (P10635 whole entry): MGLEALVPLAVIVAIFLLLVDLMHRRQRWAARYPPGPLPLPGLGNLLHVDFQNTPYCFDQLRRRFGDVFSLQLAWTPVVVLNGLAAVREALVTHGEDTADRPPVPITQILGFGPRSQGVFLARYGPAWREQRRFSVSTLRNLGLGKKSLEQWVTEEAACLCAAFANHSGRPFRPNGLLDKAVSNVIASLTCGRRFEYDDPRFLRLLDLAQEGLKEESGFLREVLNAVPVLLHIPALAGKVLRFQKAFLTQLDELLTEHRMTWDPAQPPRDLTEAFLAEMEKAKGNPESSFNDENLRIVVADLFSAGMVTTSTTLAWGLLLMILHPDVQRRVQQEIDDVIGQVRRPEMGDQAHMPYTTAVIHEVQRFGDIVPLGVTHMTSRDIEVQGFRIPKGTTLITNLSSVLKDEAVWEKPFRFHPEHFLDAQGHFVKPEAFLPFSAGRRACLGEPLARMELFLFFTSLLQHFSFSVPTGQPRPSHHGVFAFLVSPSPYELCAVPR

Genome polyprotein = Genome polyprotein (dengue virus type 2, UniProt P29990); assay: Dengue-2 NS5 methyltransferase inhibitors, primary screen, biochemical, confirmation dose response (AID 588689); type: functional
Sequence of Genome polyprotein (P29990 2492-3391 limits assumed): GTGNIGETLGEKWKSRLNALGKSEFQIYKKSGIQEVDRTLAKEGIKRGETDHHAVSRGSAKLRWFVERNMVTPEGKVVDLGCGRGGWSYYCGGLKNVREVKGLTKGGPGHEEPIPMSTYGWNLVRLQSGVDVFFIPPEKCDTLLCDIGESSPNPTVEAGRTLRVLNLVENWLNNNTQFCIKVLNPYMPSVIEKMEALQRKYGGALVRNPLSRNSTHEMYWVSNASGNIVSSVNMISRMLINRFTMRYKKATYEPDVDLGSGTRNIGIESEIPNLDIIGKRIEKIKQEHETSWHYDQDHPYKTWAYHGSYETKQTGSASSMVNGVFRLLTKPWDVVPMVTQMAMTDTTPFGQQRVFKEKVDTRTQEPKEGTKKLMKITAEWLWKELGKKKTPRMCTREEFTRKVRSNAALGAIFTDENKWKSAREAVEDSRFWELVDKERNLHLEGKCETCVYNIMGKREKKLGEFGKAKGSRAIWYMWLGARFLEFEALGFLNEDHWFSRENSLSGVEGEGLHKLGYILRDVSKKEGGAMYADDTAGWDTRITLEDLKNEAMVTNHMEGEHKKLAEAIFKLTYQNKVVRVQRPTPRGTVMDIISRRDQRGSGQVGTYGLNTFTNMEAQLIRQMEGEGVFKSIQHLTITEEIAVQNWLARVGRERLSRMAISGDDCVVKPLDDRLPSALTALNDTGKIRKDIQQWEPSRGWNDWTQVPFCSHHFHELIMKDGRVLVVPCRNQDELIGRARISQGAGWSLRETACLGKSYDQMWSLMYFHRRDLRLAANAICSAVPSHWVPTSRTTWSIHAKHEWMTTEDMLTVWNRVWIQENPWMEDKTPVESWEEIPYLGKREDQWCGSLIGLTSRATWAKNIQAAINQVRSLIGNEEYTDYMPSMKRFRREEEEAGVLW

[9] = biological target: T1, Replicative DNA helicase DnaB (Mycobacterium tuberculosis, UniProt P9WMR3); assay: DnaB intein splicing inhibitors, dose response, biochemical, cell-free fluorescence (AID 449749); type: functional
T1 sequence (P9WMR3 whole entry): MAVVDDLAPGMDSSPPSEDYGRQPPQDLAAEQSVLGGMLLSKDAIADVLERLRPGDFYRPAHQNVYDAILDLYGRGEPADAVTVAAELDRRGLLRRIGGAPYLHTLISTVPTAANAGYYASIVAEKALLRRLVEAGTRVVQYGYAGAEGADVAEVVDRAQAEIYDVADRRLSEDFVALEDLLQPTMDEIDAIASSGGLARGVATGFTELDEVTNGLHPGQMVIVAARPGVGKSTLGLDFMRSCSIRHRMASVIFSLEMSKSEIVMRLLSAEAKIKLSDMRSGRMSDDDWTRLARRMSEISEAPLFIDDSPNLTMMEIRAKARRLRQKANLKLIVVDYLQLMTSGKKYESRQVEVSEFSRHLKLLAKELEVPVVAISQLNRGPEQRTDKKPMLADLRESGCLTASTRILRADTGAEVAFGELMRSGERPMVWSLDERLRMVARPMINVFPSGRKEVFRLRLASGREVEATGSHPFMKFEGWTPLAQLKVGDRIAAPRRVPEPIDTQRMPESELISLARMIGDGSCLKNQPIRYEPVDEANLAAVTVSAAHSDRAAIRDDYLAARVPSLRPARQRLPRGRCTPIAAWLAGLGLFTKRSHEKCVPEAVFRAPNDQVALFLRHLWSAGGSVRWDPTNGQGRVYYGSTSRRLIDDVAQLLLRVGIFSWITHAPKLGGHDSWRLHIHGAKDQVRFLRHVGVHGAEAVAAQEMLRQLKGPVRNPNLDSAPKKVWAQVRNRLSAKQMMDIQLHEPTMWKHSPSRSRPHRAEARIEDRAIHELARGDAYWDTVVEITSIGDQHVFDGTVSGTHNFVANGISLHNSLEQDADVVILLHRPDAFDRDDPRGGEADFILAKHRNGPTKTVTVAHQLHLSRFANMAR

Protein RecA = biological target: T2, Protein RecA (Mycobacterium tuberculosis, UniProt P9WHJ3); assay: Fluorescence Cell-Free Homogeneous Dose Retest to Identify Inhibitors of RecA-Intein Splicing Activity. [Related pubchem assays (depositor defined):AID2097, AID2223, AID489010, AID492950]; type: functional
T2 sequence (P9WHJ3 whole entry): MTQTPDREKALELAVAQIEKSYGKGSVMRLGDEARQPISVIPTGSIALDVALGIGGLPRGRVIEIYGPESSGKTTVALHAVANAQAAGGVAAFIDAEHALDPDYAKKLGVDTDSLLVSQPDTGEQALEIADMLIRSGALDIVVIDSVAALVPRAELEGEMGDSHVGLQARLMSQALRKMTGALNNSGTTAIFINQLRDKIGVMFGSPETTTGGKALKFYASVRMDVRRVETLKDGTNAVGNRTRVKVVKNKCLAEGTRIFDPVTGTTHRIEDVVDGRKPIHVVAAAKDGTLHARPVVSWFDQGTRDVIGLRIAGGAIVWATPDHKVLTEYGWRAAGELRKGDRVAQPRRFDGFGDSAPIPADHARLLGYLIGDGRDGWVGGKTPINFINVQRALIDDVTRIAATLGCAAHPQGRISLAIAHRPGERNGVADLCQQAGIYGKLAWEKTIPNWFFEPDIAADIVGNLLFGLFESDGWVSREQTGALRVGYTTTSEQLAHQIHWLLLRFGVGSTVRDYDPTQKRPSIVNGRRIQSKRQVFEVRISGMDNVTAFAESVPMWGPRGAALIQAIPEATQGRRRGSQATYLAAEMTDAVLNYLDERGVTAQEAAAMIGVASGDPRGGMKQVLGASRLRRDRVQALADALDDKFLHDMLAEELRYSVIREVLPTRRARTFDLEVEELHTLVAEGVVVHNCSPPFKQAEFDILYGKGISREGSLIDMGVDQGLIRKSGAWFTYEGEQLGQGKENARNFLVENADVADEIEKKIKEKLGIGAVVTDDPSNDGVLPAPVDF

Cytochrome P450 2C19 = Cytochrome P450 2C19 (Homo sapiens, UniProt P33261); assay: Cytochrome panel assay with activity outcomes. Panel member name: p450-cyp2c19 Compounds with AC50 equal or less than 10 uM are considered active; type: functional; conditions: read-out: AC50
Sequence of Cytochrome P450 2C19 (P33261 whole entry): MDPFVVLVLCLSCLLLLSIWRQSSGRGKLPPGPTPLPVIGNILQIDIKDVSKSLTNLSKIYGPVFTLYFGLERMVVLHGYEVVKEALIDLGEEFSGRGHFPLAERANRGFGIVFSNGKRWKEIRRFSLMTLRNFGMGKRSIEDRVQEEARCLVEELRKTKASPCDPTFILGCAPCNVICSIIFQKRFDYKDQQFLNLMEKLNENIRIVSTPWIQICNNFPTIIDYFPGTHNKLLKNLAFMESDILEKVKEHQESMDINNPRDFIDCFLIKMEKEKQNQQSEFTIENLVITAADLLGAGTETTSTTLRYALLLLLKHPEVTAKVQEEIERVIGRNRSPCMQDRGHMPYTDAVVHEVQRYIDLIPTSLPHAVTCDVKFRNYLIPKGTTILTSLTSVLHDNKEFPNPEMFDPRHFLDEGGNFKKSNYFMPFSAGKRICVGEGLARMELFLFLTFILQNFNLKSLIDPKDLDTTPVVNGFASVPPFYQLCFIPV

Cytochrome P450 1A2 = biological target: T3, Cytochrome P450 1A2 (Homo sapiens, UniProt P05177);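 also: PubChem cytochrome P450 panel assay, CYP1A2 panel member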
T3 sequence (P05177 whole entry): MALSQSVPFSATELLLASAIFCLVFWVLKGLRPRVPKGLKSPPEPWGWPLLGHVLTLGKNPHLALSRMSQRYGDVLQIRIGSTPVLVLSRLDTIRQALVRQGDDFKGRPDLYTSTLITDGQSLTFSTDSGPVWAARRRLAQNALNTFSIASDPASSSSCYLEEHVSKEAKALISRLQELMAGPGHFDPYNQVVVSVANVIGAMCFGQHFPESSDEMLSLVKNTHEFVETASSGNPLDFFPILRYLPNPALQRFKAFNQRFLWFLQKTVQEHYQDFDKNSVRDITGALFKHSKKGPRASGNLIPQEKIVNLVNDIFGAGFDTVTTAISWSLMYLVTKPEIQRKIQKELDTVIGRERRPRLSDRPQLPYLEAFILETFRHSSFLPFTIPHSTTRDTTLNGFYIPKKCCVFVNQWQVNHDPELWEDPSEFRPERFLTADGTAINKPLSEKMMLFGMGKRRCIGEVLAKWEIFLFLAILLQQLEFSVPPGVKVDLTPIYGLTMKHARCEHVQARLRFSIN

[10] = HeLa cell cytotoxicity, dose response, cytotoxicity control for MgcRacGAP inhibitor project (AID 624300); type: functional
[11] = biological target: T4, Rac GTPase-activating protein 1 (Homo sapiens, UniProt Q9H0H5); assay: MgcRacGAP GTPase-activating activity inhibitors, confirmation, biochemical, ADP Hunter fluorescence, primary and confirmatory (AID 624330); type: functional
T4 sequence (Q9H0H5 whole entry): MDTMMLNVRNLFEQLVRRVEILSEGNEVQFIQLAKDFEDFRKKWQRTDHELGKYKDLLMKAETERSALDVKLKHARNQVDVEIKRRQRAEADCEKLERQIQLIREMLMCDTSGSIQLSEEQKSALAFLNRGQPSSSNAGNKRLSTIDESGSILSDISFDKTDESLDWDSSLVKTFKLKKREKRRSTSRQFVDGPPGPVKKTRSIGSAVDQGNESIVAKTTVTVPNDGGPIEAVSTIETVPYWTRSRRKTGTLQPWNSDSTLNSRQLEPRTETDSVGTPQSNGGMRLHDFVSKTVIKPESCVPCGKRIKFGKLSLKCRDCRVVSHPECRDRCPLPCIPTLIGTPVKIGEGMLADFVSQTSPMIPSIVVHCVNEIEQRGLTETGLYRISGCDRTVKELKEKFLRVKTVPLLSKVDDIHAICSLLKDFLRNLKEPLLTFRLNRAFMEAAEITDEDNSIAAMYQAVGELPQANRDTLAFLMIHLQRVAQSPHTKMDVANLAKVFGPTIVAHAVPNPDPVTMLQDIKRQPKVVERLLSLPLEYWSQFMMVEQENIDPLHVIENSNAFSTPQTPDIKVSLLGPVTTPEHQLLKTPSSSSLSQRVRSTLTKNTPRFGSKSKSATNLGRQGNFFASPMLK

Cytochrome P450 2C9 = Cytochrome P450 2C9 (Homo sapiens, UniProt P11712)
Sequence of Cytochrome P450 2C9 (P11712 whole entry): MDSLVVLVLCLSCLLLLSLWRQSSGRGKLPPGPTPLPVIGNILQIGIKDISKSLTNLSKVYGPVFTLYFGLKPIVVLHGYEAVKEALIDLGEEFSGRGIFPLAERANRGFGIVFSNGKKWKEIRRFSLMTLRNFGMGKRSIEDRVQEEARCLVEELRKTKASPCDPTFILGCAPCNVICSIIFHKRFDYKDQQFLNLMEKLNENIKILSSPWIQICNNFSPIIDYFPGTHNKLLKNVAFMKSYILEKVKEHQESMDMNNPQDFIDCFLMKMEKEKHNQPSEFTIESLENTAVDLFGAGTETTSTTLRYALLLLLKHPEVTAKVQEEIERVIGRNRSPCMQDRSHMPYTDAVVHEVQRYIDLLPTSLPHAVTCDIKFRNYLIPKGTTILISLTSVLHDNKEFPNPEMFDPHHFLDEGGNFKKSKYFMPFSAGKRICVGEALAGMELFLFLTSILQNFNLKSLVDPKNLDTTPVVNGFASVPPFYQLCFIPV

[12] = HEp-2 cell cytotoxicity, dose response, cytotoxicity control for RSV inhibitor project, HTS (AID 2410); type: functional; conditions: human respiratory syncytial virus

Sequence of Voltage-gated inwardly rectifying potassium channel KCNH2 (Q12809 whole entry): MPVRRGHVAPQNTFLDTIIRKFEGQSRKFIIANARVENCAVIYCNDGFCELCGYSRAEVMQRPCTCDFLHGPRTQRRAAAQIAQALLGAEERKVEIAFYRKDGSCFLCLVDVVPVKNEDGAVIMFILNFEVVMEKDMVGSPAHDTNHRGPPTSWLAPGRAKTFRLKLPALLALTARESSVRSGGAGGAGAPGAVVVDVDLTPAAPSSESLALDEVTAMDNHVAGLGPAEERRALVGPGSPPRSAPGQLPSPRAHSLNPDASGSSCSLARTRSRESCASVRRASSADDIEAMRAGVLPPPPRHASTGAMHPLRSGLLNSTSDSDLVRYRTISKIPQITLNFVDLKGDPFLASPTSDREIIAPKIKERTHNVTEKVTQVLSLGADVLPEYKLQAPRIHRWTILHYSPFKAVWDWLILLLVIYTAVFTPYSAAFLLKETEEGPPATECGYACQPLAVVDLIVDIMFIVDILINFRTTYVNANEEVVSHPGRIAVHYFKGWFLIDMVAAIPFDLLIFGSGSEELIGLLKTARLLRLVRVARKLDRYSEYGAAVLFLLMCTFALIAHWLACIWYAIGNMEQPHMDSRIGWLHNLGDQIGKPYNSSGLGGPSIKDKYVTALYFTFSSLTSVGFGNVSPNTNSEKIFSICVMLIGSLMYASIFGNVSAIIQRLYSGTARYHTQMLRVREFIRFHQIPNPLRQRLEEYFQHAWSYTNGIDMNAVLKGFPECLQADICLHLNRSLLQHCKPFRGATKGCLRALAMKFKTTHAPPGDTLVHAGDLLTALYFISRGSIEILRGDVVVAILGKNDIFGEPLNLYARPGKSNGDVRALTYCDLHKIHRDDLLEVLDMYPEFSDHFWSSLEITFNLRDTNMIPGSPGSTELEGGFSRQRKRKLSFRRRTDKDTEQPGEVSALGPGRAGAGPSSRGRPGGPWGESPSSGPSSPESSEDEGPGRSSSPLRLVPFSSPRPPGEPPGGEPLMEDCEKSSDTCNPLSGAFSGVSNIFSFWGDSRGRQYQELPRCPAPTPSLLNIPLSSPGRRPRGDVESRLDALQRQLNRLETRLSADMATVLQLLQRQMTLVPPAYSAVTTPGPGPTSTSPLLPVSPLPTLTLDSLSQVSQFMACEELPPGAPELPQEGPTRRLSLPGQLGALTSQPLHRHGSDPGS

## COc1cc2c(cc1O)N=C[C@@H]1CC[C@@H](O)N1C2=O.COc1cc2c(cc1O)N=C[C@@H]1CC[C@H](O)N1C2=O
P388
  GI50: 582 nM (active)
SN12K1
  GI50: 0.53 µM (active)
P388/ADR
  GI50: 0.173 µM (active)

## ClC1=C(Cl)C2(Cl)C3C(Cl)C=CC3C1(Cl)C2(Cl)Cl (stereo unspecified) [HEPTACHLOR]
[1]
  AC50: 31.6 µM (inconclusive)
[2]
  AC50: 6.1 µM (active)

## COc1ccc(NC(=O)c2sc3ncnc(N4CCN(c5ccccn5)CC4)c3c2C)cc1Cl
[3]
  AC50: 3.19 µM (active)
[4]
  AC50: 6.41 µM (active)
[5]
  AC50: 4.08 µM (active)
[6]
  AC50: > 70 µM (inactive)
HEK293
  AC50: 11.6 µM (active)

## N#Cc1c(N2CCN(C(=O)c3ccccc3Cl)CC2)nc(-c2ccccc2)c2c1CCCC2
[7]
  EC50: 2.36 µM (active)
[8]
  EC50: > 60 µM (not active)
Cytochrome P450 3A4
  AC50: inconclusive

## Cc1c(C(=O)O)c(O)cc2c1C(=O)c1c(O)c([C@H]3O[C@H](CO)[C@@H](O)[C@H](O)[C@H]3O)c(O)c(O)c1C2=O [CARMINE]
[1]
  AC50: 79.4 µM (inconclusive)

## O=[N+]([O-])c1ccc(CSc2ncnc3c2ncn3[C@@H]2O[C@H](CO)[C@H](O)[C@H]2O)cc1
[1]
  AC50: 35.5 µM (inconclusive)

## Sc1nnc(-c2ccco2)n1/N=C/C=C/c1ccco1
Vero
  CC50: > 40 µM (active)

## COCCN1CSC(=S)N(Cc2ccco2)C1
HEK293
  AC50: 0.688 µM (active)

## Cc1noc(C)c1C(=O)N1CCC2(CCN(C(=O)Nc3ccccc3)CC2)CC1
Cytochrome P450 2D6
  AC50: 12.6 µM (inconclusive)
Cytochrome P450 3A4
  AC50: inconclusive

## COC(=O)c1c(NC(=O)/C=C/C(=O)O)sc(C)c1-c1ccc(C(C)C)cc1
Genome polyprotein
  IC50: 65 µM (active)
Vero
  CC50: > 40 µM (active)
[9]
  AC50: 6.48 µM (active)
Protein RecA
  EC50: 2.4 µM (active)

## CCC/N=C/c1c(CCC)nn(-c2nc3ccccc3s2)c1O
Cytochrome P450 2C19
  AC50: 20 µM (inconclusive)
Cytochrome P450 2D6
  AC50: 25.1 µM (inconclusive)
Cytochrome P450 3A4
  AC50: inconclusive

## N#Cc1cccc(NC(=O)N2CC3(CCN(C(=O)c4cnccn4)CC3)C2)c1
Cytochrome P450 1A2
  AC50: 39.8 µM (inconclusive)
Cytochrome P450 3A4
  AC50: inconclusive

## O=C(c1ccccc1F)N1CCN(Cc2ccccc2F)CC1
[10]
  CC50: 100 µM (active)
[11]
  IC50: 182 µM (active)

## Oc1ccc(/C=N/n2c(-c3ccco3)cs/c2=N\c2cccnc2)c(O)c1
[10]
  CC50: 100 µM (active)
[11]
  IC50: 43.3 µM (active)

## CCCn1nnc(NC(=O)Cc2ccccc2)n1
Cytochrome P450 1A2
  AC50: 28.2 µM (inconclusive)
Cytochrome P450 3A4
  AC50: inconclusive
Cytochrome P450 2C9
  AC50: 0.00562 µM (inconclusive)

## CC[C@H](NC(=O)c1c(C)c(-c2ccccc2)nc2ccccc12)c1ccccc1 [SB-222200]
[1]
  AC50: 35.5 µM (inconclusive)

## C[n+]1ccc(Nc2ccc(NC(=O)c3ccc(Nc4cc[n+](C)c5ccc([N+](=O)[O-])cc45)cc3[N+](=O)[O-])cc2)cc1
P388
  GI50: 771 nM (active)
SN12K1
  GI50: 23.9 µM (inactive)

## CC(C)(C)c1ccc2c(c1)OP1(Oc3c(Cl)cc(Cl)c4cccnc34)(O2)Oc2ccc(C(C)(C)C)cc2O1
P388
  GI50: 889 nM (active)
SN12K1
  GI50: 6.21 µM (inactive)
P388/ADR
  GI50: 2.84 µM (inactive)

## C=C1C(=O)O[C@@H]2[C@H](O)[C@@H](C)[C@@H]3C=CC(=O)[C@@]3(C)[C@@H](OC(=O)/C(C)=C/C)[C@H]12
P388
  GI50: 93.3 nM (active)
SN12K1
  GI50: 0.34 µM (active)
P388/ADR
  GI50: 0.104 µM (active)

## Cc1cccc(Nc2nc(-c3ccc(O)cc3O)cs2)n1
Vero
  CC50: > 40 µM (active)
[2]
  AC50: 6.88 µM (active)
[12]
  CC50: 43.6 µM (active)

## CCCCOC(=O)COc1ccc(Cl)cc1Cl
[1]
  AC50: 50.1 µM (inconclusive)

## CS(=O)(=O)CS(=O)(=O)OCCCl
P388
  GI50: 17900 nM (inactive)
SN12K1
  GI50: 152 µM (inactive)
P388/ADR
  GI50: 27.7 µM (inactive)

## CCCCOC1(c2ccccc2)OC(=O)c2ccccc21 (stereo unspecified)
Cytochrome P450 3A4
  AC50: inconclusive
Cytochrome P450 2C9
  AC50: 17.8 µM (inconclusive)

## O=C1CCCN1CCC/N=c1/cc2n(-c3ccc(Cl)cc3)c3ccccc3nc-2cc1Nc1ccc(Cl)cc1
P388
  GI50: 3450 nM (inactive)
SN12K1
  GI50: 9.66 µM (inactive)
P388/ADR
  GI50: 3.53 µM (inactive)

Reference: ChEMBL document CHEMBL1201862, “PubChem BioAssay data set” (2004)
